Patent US7511145B2 (Genelabs Technologies, Inc., priority 2003, dated 2009)

Target: T1, HCV-NS5b (Hepatitis C virus genotype 1b, UniProt Q9WMX2)
T1 construct: (His)6 (C); made in house; host or cells: XL-1 cells (E. coli), IPTG-inducible plasmid, nickel-NTA purification
Assay: HCV-NS5b enzyme assay (incorporation of radiolabeled UTP)
Assay type: biochemical
Details: for inhibition at 33 µM: enzyme inhibition at compound concentration of 33 uM; for inhibition at 100 µM: read-out: % inh@100, enzyme inhibition at compound concentration of 100 uM
Procedure, shortened: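 Percent inhibition, background-corrected against uninhibited control, was measured at 100 and 33 uM compound. Incorporation of [3H]-UTP (10 μM each NTP) into biotinylated HCV-template RNA, 37° C for 2 h, pH 7.5, scintillation proximity. Enzyme: C-terminally truncated (21 aa), His6-tagged NS5b from XL-1.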

SMILES | inhibition at 33 µM | inhibition at 100 µM
O=C(O)c1ccc2c(c1)nc(-c1ccc3nc(-c4ccccc4-c4ccccc4)ccc3c1)n2C1CCCCC1 [Compound 395, 2-(2-biphen-2-yl-quinolin-6-yl)-1-cyclohexyl-1H-benzoimidazole-5-carboxylic acid] | 100% | 101%
Cc1onc(-c2ccc(Cl)cc2)c1-c1ccc2cc(-c3nc4cc(C(=O)O)ccc4n3C3CCCCC3)ccc2n1 [Compound 396, 2-{2-[3-(4-chloro-phenyl)-5-methyl-isoxazol-4-yl]-quinolin-6-yl}-1-cyclohexyl-1H-benzoimidazole-5-carboxylic acid] | 100% | 100%
Cc1cc(-c2nc3cc(C(=O)O)ccc3n2C2CCCCC2)cc2ccc(-c3ccccc3)nc12 [Compound 397, 1-Cyclohexyl-2-(8-methyl-2-phenyl-quinolin-6-yl)-1H-benzoimidazole-5-carboxylic acid] | 95.6% | 99.3%
O=C(O)c1ccc2c(c1)nc(-c1ccc3nc(-c4ccccc4)cc(NCCCCO)c3c1)n2C1CCCCC1 [Compound 398, 1-cyclohexyl-2-[4-(4-hydroxy-butylamino)-2-phenyl-quinolin-6-yl]-1H-benzoimidazole-5-carboxylic acid] | 59.6% | 92%
CC(C)(C)OC(=O)NCCNc1cc(-c2ccccc2)nc2ccc(-c3nc4cc(C(=O)O)ccc4n3C3CCCCC3)cc12 [Compound 399, 2-[4-(2-tert-butoxycarbonylamino-ethylamino)-2-phenyl-quinolin-6-yl]-1-cyclohexyl-1H-benzoimidazole-5-carboxylic acid] | 95.6% | 102%
COc1ccc(-c2ccc(N(C)C)cc2)c(-c2ccc3cc(-c4nc5cc(C(=O)O)ccc5n4C4CCCCC4)ccc3n2)c1 [Compound 401, 1-cyclohexyl-2-[2-(4′-dimethylamino-4-methoxy-biphen-2-yl)-quinolin-6-yl]-1H-benzoimidazole-5-carboxylic acid] | 100% | 101%
COc1ccc(-c2ccc(Cl)c(Cl)c2)c(-c2ccc3cc(-c4nc5cc(C(=O)O)ccc5n4C4CCCCC4)ccc3n2)c1 [Compound 403, 1-cyclohexyl-2-[2-(3′,4′-dichloro-4-methoxy-biphen-2-yl)-quinolin-6-yl]-1H-benzoimidazole-5-carboxylic acid] | 99.4% | 99.9%
CCOc1ccc([N+](=O)[O-])cc1-c1ccc2cc(-c3nc4cc(C(=O)O)ccc4n3C3CCCCC3)ccc2n1 [Compound 404, 1-cyclohexyl-2-[2-(2-ethoxy-5-nitro-phenyl)-quinolin-6-yl]-1H-benzoimidazole-5-carboxylic acid] | 102% | 101%
O=C(O)c1ccc2c(c1)nc(-c1ccc3ccc(-c4ccccc4)nc3c1)n2C1CCCCC1 [Compound 405, 1-Cyclohexyl-2-(2-phenyl-quinolin-7-yl)-1H-benzoimidazole-5-carboxylic acid] | 90.5% | 98.9%
O=C(O)c1ccc2c(c1)nc(-c1ccc3nc(-c4ccccc4)c(-c4ccccc4)nc3c1)n2C1CCCCC1 [Compound 406, 1-Cyclohexyl-2-(2,3-diphenylquinoxalin-6-yl)-1H-benzimidazole-5-carboxylic acid] | 97.3% | 98.1%
O=C(O)c1ccc2c(c1)nc(-c1cc3ccc(-c4ccccc4-c4ccc(Cl)cc4)nc3cc1F)n2C1CCCCC1 [Compound 408, 2-[2-(4′-Chloro-biphen-2-yl)-7-fluoro-quinolin-6-yl]-1-cyclohexyl-1H-benzoimidazole-5-carboxylic acid] | 99.3% | 98.9%
O=C(O)c1ccc2c(c1)nc(-c1ccc3nc(-c4ccc(F)cc4)c(-c4ccc(F)cc4)nc3c1)n2C1CCCCC1 [Compound 409, 2-[2,3-Bis-(4-fluorophenyl)quinoxalin-6-yl]-1-cyclohexyl-1H-benzimidazole-5-carboxylic acid] | 97.9% | 99.9%
O=C(c1ccc2c(c1)nc(-c1cc3ccc(-c4ccccc4-c4ccccc4)nc3cc1F)n2C1CCCCC1)N1CCC(O)CC1 [Compound 410] | 84.3% | 88.6%
O=C(O)c1ccc2c(c1)nc(-c1ccc3nc(-c4cc5cccc(O)c5o4)ccc3c1)n2C1CCCCC1 [Compound 411, 1-cyclohexyl-2-[2-(7-hydroxy-benzofuran-2-yl)-quinolin-6-yl]-1H-benzoimidazole-5-carboxylic acid] | 78.1% | 91.5%
O=C(O)c1ccc2c(c1)nc(-c1ccc3nc(-c4ccc5c(c4)OCO5)ccc3c1)n2C1CCCCC1 [Compound 412, 2-(2-benzo[1,3]dioxol-5-yl-quinolin-6-yl)-1-cyclohexyl-1H-benzoimidazole-5-carboxylic acid] | 98.4% | 100%
O=C(O)c1ccc2c(c1)nc(-c1ccc3nc(-c4cc5ccccc5o4)ccc3c1)n2C1CCCCC1 [Compound 413, 2-(2-benzofuran-2-yl-quinolin-6-yl)-1-cyclohexyl-1H-benzoimidazole-5-carboxylic acid] | 95.5% | 100%
O=C(O)c1ccc2c(c1)nc(-c1ccc3nc(-c4cccc(OCCCN5CCCC5)c4)ccc3c1)n2C1CCCCC1 [Compound 414, 1-Cyclohexyl-2-{2-[3-(3-pyrrolidin-1-yl-propoxy)-phenyl]-quinolin-6-yl}-1H-benzoimidazole-5-carboxylic acid] | 93.4% | 96.8%
O=C(O)c1ccc(-c2ccc(Cl)cc2)c(-c2ccc3cc(-c4nc5cc(C(=O)O)ccc5n4C4CCCCC4)ccc3n2)c1 [Compound 415, 2-[2-(4-Carboxy-4′-chloro-biphen-2-yl)-quinolin-6-yl]-1-cyclohexyl-1H-benzoimidazole-5-carboxylic acid] | 101% | 102%
Cc1nc(-c2ccc(Cl)cc2)sc1-c1ccc2cc(-c3nc4cc(C(=O)O)ccc4n3C3CCCCC3)ccc2n1 [Compound 416, 2-{2-[2-(4-chloro-phenyl)-4-methyl-thiazol-5-yl]-quinolin-6-yl}-1-cyclohexyl-1H-benzoimidazole-5-carboxylic acid] | 101% | 103%
Cc1cc(-c2nc3cc(C(=O)O)ccc3n2C2CCCCC2)cc2ccc(-c3ccccc3-c3ccc(Cl)cc3)nc12 [Compound 417, 2-[2-(4′-Chloro-biphen-2-yl)-8-methyl-quinolin-6-yl]-1-cyclohexyl-1H-benzoimidazole-5-carboxylic acid] | 97.8% | 98%
Cc1cc(-c2ccc3cc(-c4nc5cc(C(=O)O)ccc5n4C4CCCCC4)ccc3n2)c(O)c([N+](=O)[O-])c1 [Compound 418, 1-cyclohexyl-2-[2-(2-hydroxy-5-methyl-3-nitro-phenyl)-quinolin-6-yl]-1H-benzoimidazole-5-carboxylic acid] | 104% | 103%
COc1ccc(-c2ccc(C(=O)N3CCCC3)cc2-c2ccc3cc(-c4nc5cc(C(=O)O)ccc5n4C4CCCCC4)ccc3n2)cc1OC [Compound 419, 1-Cyclohexyl-2-{2-[3′,4′-dimethoxy-4-(pyrrolidine-1-carbonyl)biphen-2-yl]quinolin-6-yl}-1H-benzimidazole-5-carboxylic acid] | 101% | 101%
COc1ccc(-c2cccc([N+](=O)[O-])c2)c(-c2ccc3cc(-c4nc5cc(C(=O)O)ccc5n4C4CCCCC4)ccc3n2)c1 [Compound 420, 1-cyclohexyl-2-[2-(4-methoxy-3′-nitro-biphen-2-yl)-quinolin-6-yl]-1H-benzoimidazole-5-carboxylic acid] | 98.3% | 98.3%
COc1ccc(-c2ccc(C(=O)O)cc2)c(-c2ccc3cc(-c4nc5cc(C(=O)O)ccc5n4C4CCCCC4)ccc3n2)c1 [Compound 421, 2-[2-(4′-carboxy-4-methoxy-biphen-2-yl)-quinolin-6-yl]-1-cyclohexyl-1H-benzoimidazole-5-carboxylic acid] | 100% | 100%
COc1ccc(-c2cccc(Cl)c2)c(-c2ccc3cc(-c4nc5cc(C(=O)O)ccc5n4C4CCCCC4)ccc3n2)c1 [Compound 422, 2-[2-(3′-chloro-4-methoxy-biphen-2-yl)-quinolin-6-yl]-1-cyclohexyl-1H-benzoimidazole-5-carboxylic acid] | 98.8% | 99.2%
O=C(O)c1ccc2c(c1)nc(-c1ccc3nc(-c4ccnc5ccccc45)ccc3c1)n2C1CCCCC1 [Compound 423, 2-[2,4′]biquinolinyl-6-yl-1-cyclohexyl-1H-benzoimidazole-5-carboxylic acid] | 102% | 102%
O=C(O)c1ccc2c(c1)nc(-c1ccc3nc(-c4ccccc4Br)c(-c4ccccc4)cc3c1)n2C1CCCCC1 [Compound 424, 2-[2-(2-Bromo-phenyl)-3-phenyl-quinolin-6-yl]-1-cyclohexyl-1H-benzoimidazole-5-carboxylic acid] | 98.7% | 99.1%
COc1cccc(-c2nc3ccc(-c4nc5cc(C(=O)O)ccc5n4C4CCCCC4)cc3nc2-c2cccc(OC)c2)c1 [Compound 425, 2-[2,3-Bis-(3-methoxyphenyl)quinoxalin-6-yl]-1-cyclohexyl-1H-benzimidazole-5-carboxylic acid] | 96.2% | 98.2%
Cc1nc(C)c(-c2ccc3cc(-c4nc5cc(C(=O)O)ccc5n4C4CCCCC4)ccc3n2)s1 [Compound 426, 1-cyclohexyl-2-[2-(2,4-dimethyl-thiazol-5-yl)-quinolin-6-yl]-1H-benzoimidazole-5-carboxylic acid] | 96.6% | 102%
